Measurements reported in PubChem BioAssay (NCI).
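Briefly, cells in 96-well plates were exposed to five compound concentrations for 48 h, and endpoints were estimated by linear interpolation. GI50 is the concentration that inhibits growth by half. TGI denotes the concentration required for complete inhibition of growth.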

What was measured:
Experiment in all cases: NCI-60 cell line screen, 48 h
786-0 renal = system: 786-0 renal
A549 NSCLC = system: A549 NSCLC
ACHN renal = system: ACHN renal
CAKI-1 renal = system: CAKI-1 renal
CCRF-CEM leukemia = system: CCRF-CEM leukemia
COLO 205 colon = system: COLO 205 colon
DLD-1 colon = system: DLD-1 colon
DMS 114 small cell lung = system: DMS 114 small cell lung
DMS 273 small cell lung = system: DMS 273 small cell lung
EKVX NSCLC = system: EKVX NSCLC
HCC-2998 colon = system: HCC-2998 colon
HCT-116 colon = system: HCT-116 colon
HCT-15 colon = system: HCT-15 colon
HL-60(TB) leukemia = system: HL-60(TB) leukemia
HOP-18 NSCLC = system: HOP-18 NSCLC
HOP-62 NSCLC = system: HOP-62 NSCLC
HOP-92 NSCLC = system: HOP-92 NSCLC
HT29 colon = system: HT29 colon
IGROV1 ovarian = system: IGROV1 ovarian
KM12 colon = system: KM12 colon
KM20L2 colon = system: KM20L2 colon
LOX IMVI melanoma = system: LOX IMVI melanoma
LXFL 529 NSCLC = system: LXFL 529 NSCLC
M14 melanoma = system: M14 melanoma
M19-MEL melanoma = system: M19-MEL melanoma
MALME-3M melanoma = system: MALME-3M melanoma
MOLT-4 leukemia = system: MOLT-4 leukemia
NCI-H226 lung = system: NCI-H226 lung
NCI-H23 lung = system: NCI-H23 lung
NCI-H460 lung = system: NCI-H460 lung
NCI-H522 lung = system: NCI-H522 lung
OVCAR-3 ovarian = system: OVCAR-3 ovarian
OVCAR-4 ovarian = system: OVCAR-4 ovarian
OVCAR-5 ovarian = system: OVCAR-5 ovarian
OVCAR-8 ovarian = system: OVCAR-8 ovarian
RPMI-8226 leukemia = system: RPMI-8226 leukemia
RXF 393 renal = system: RXF 393 renal
SF-268 CNS = system: SF-268 CNS
SF-295 CNS = system: SF-295 CNS
SF-539 CNS = system: SF-539 CNS
SK-MEL-2 melanoma = system: SK-MEL-2 melanoma
SK-MEL-28 melanoma = system: SK-MEL-28 melanoma
SK-MEL-5 melanoma = system: SK-MEL-5 melanoma
SK-OV-3 ovarian = system: SK-OV-3 ovarian
SN12C renal = system: SN12C renal
SNB-19 CNS = system: SNB-19 CNS
SNB-75 CNS = system: SNB-75 CNS
SNB-78 CNS = system: SNB-78 CNS
SR leukemia = system: SR leukemia
TK-10 renal = system: TK-10 renal
U251 CNS = system: U251 CNS
UACC-257 melanoma = system: UACC-257 melanoma
UACC-62 melanoma = system: UACC-62 melanoma
UO-31 renal = system: UO-31 renal

Work on FC(F)(F)c1nnn[n-]1.[Au+].c1ccc([PH+](c2ccccc2)c2ccccc2)cc1 yielded a GI50 (786-0 renal) of 1840 nM, a TGI (786-0 renal) of 3.55 µM and a GI50 (A549 NSCLC) of 19.3 µM. The TGI (A549 NSCLC) was 62.3 µM, the GI50 (ACHN renal) was 4.63 µM and the TGI (ACHN renal) was 9.84 µM. For the same compound, the GI50 (CAKI-1 renal) was 3.6 µM, the TGI (CAKI-1 renal) was 14.2 µM and the GI50 (CCRF-CEM leukemia) was 449 nM. For the same compound, the TGI (CCRF-CEM leukemia) was 2910 nM, the GI50 (COLO 205 colon) was 2620 nM and the TGI (COLO 205 colon) was 6.94 µM. For the same compound, the GI50 (DLD-1 colon) was 1950 nM, the TGI (DLD-1 colon) was 5.04 µM and the GI50 (DMS 114 small cell lung) was 1950 nM. For the same compound, the TGI (DMS 114 small cell lung) was 15 µM, the GI50 (DMS 273 small cell lung) was 5.62 µM and the TGI (DMS 273 small cell lung) was 54.7 µM. It also gave a GI50 (EKVX NSCLC) of 5.65 µM, a TGI (EKVX NSCLC) of 10.4 µM and a GI50 (HCC-2998 colon) of 10.3 µM. The TGI (HCC-2998 colon) was 22.3 µM, the GI50 (HCT-116 colon) was 12.4 µM and the TGI (HCT-116 colon) was 24.9 µM. For the same compound, the GI50 (HCT-15 colon) was 2190 nM, the TGI (HCT-15 colon) was 6.92 µM and the GI50 (HL-60(TB) leukemia) was 161 nM. For the same compound, the TGI (HL-60(TB) leukemia) was 420 nM, the GI50 (HOP-18 NSCLC) was 8.67 µM and the TGI (HOP-18 NSCLC) was 20.5 µM. The GI50 (HOP-62 NSCLC) was 19.7 µM, the TGI (HOP-62 NSCLC) was 34.2 µM and the GI50 (HOP-92 NSCLC) was 2380 nM. For the same compound, the TGI (HOP-92 NSCLC) was 4.59 µM, the GI50 (HT29 colon) was 4.25 µM and the TGI (HT29 colon) was 13.2 µM. It also gave a GI50 (IGROV1 ovarian) of 2690 nM, a TGI (IGROV1 ovarian) of 13.2 µM and a GI50 (KM12 colon) of 13.2 µM. It also gave a TGI (KM12 colon) of 42.5 µM, a GI50 (KM20L2 colon) of 6.74 µM and a TGI (KM20L2 colon) of 16.6 µM. For the same compound, the GI50 (LOX IMVI melanoma) was 2260 nM, the TGI (LOX IMVI melanoma) was 7.64 µM and the GI50 (LXFL 529 NSCLC) was 1480 nM. The TGI (LXFL 529 NSCLC) was 2820 nM, the GI50 (M14 melanoma) was 1780 nM and the TGI (M14 melanoma) was 4.37 µM. It also gave a GI50 (M19-MEL melanoma) of 2740 nM, a TGI (M19-MEL melanoma) of 15.7 µM and a GI50 (MALME-3M melanoma) of 1580 nM. The TGI (MALME-3M melanoma) was 3.35 µM, the GI50 (MOLT-4 leukemia) was 1520 nM and the TGI (MOLT-4 leukemia) was 4.09 µM. For the same compound, the GI50 (NCI-H226 lung) was 10.9 µM, the TGI (NCI-H226 lung) was 26.3 µM and the GI50 (NCI-H23 lung) was 2790 nM. For the same compound, the TGI (NCI-H23 lung) was 9.11 µM, the GI50 (NCI-H460 lung) was 16.6 µM and the TGI (NCI-H460 lung) was 50.4 µM. For the same compound, the GI50 (NCI-H522 lung) was 1330 nM, the TGI (NCI-H522 lung) was 2810 nM and the GI50 (OVCAR-3 ovarian) was 2890 nM. The TGI (OVCAR-3 ovarian) was 7.49 µM, the GI50 (OVCAR-4 ovarian) was 2090 nM and the TGI (OVCAR-4 ovarian) was 6.67 µM. For the same compound, the GI50 (OVCAR-5 ovarian) was 16.1 µM, the TGI (OVCAR-5 ovarian) was 30 µM and the GI50 (OVCAR-8 ovarian) was 2770 nM. The TGI (OVCAR-8 ovarian) was 9.18 µM, the GI50 (RPMI-8226 leukemia) was 1410 nM and the TGI (RPMI-8226 leukemia) was 4.63 µM. The GI50 (RXF 393 renal) was 1520 nM, the TGI (RXF 393 renal) was 3.11 µM and the GI50 (SF-268 CNS) was 4.2 µM. For the same compound, the TGI (SF-268 CNS) was 13.1 µM, the GI50 (SF-295 CNS) was 11 µM and the TGI (SF-295 CNS) was 41.3 µM. For the same compound, the GI50 (SF-539 CNS) was 5.18 µM, the TGI (SF-539 CNS) was 19.4 µM and the GI50 (SK-MEL-2 melanoma) was 3.09 µM. The TGI (SK-MEL-2 melanoma) was 10.8 µM, the GI50 (SK-MEL-28 melanoma) was 2490 nM and the TGI (SK-MEL-28 melanoma) was 7.35 µM. The GI50 (SK-MEL-5 melanoma) was 2000 nM, the TGI (SK-MEL-5 melanoma) was 7.15 µM and the GI50 (SK-OV-3 ovarian) was 15.6 µM. The TGI (SK-OV-3 ovarian) was 29 µM, the GI50 (SN12C renal) was 6.34 µM and the TGI (SN12C renal) was 16.4 µM. For the same compound, the GI50 (SNB-19 CNS) was 4.07 µM, the TGI (SNB-19 CNS) was 13.6 µM and the GI50 (SNB-75 CNS) was 8.64 µM. For the same compound, the TGI (SNB-75 CNS) was 22.1 µM, the GI50 (SNB-78 CNS) was 6.66 µM and the TGI (SNB-78 CNS) was greater than 62.7 µM. It also gave a GI50 (SR leukemia) of 1300 nM, a TGI (SR leukemia) of 3.65 µM and a GI50 (TK-10 renal) of 3.51 µM. The TGI (TK-10 renal) was 9.27 µM, the GI50 (U251 CNS) was 3.04 µM and the TGI (U251 CNS) was 11.1 µM. For the same compound, the GI50 (UACC-257 melanoma) was 1820 nM, the TGI (UACC-257 melanoma) was 7.43 µM and the GI50 (UACC-62 melanoma) was 2170 nM. The TGI (UACC-62 melanoma) was 10.7 µM, the GI50 (UO-31 renal) was 6.84 µM and the TGI (UO-31 renal) was 16.7 µM.
